Reference: the supplement of paper PMC8633005

How the values were obtained:
Assay in all cases: drug sensitivity score (DSS) (DSS (unitless, 0-50 scale)); higher = more sensitive (stronger viability inhibition); extreme values may be limits of the assay
Conditions in all cases: 72 h; culture: 2D
FM-MEL-3 = tested on: FM-MEL-3
Procedure, shortened: (§1)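 Drug sensitivity scores, modified area-under-curve measures, were derived from dose-response curves fitted in the in-house Breeze software. The curves came from melanoma cell lines and patient-derived melanoma cultures (1000–1500 cells per well) grown in 2D in 384-well plates holding a 527-compound oncology library. Each compound was dissolved in DMSO or water and tested at five concentrations across a 10,000-fold range. Viability was read by CellTiter-Glo luminescence after 72 h at 37 °C.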

Bowes = tested on: Bowes
Procedure, shortened: as §1

WM165 = tested on: WM165
Procedure, shortened: as §1

SK-MEL-28 = tested on: SK-MEL-28
Procedure, shortened: as §1

FM-MEL-6 = tested on: FM-MEL-6
Procedure, shortened: as §1

FM-MEL-2 = tested on: FM-MEL-2
Procedure, shortened: as §1

SK-MEL-2 = tested on: SK-MEL-2
Procedure, shortened: as §1

WM852 = tested on: WM852
Procedure, shortened: as §1

Row | Compound | drug sensitivity score (FM-MEL-3) | drug sensitivity score (Bowes) | drug sensitivity score (WM165) | drug sensitivity score (SK-MEL-28) | drug sensitivity score (FM-MEL-6) | drug sensitivity score (FM-MEL-2) | drug sensitivity score (SK-MEL-2) | drug sensitivity score (WM852)
1 | CN(Cc1cnc2nc(N)nc(N)c2n1)c1ccc(C(=O)N[C@@H](CCC(=O)O)C(=O)O)cc1 [Methotrexate] | 0 | 27.7 | 14.4 | 9 | 0 | 0 | 0 | 0
2 | Cc1ccc(NC(=O)c2ccc(CN3CCN(C)CC3)cc2)cc1Nc1nc(-c2cccnc2)cs1 [Masitinib] | 4.3 | 2.3 | 3.3 | 3.5 | 4.4 | 6.4 | 2.1 | 5.7
3 | S=C(NCc1ccc2c(c1)OCO2)N1CCN(c2ncnc3c2oc2ccccc23)CC1 [Amuvatinib] | 4.9 | 3.9 | 1.2 | 0 | 0 | 0 | 0 | 6.6
4 | CC(O)(CS(=O)(=O)c1ccc(F)cc1)C(=O)Nc1ccc(C#N)c(C(F)(F)F)c1 (stereo unspecified) [Bicalutamide] | 1.7 | 0 | 0 | 0.1 | 0 | 0 | 0 | 0.8
5 | CCOc1ccn(-c2ccc(F)cc2)c(=O)c1C(=O)Nc1ccc(Oc2ccnc(N)c2Cl)c(F)c1 | 0 | 0 | 0 | 0 | 0 | 0 | 0 | 0
6 | CCN(CC)CCOc1ccc(C(=C(Cl)c2ccccc2)c2ccccc2)cc1 [Clomifene] | 5.6 | 5.8 | 6.1 | 6.8 | 6.3 | 4.1 | 4.2 | 5.2
7 | C[C@H](Nc1ncnc2nc[nH]c12)c1cc2cccc(Cl)c2c(=O)n1-c1ccccc1 [Duvelisib] | 0 | 0 | 0 | 1.3 | 0 | 2.3 | 0 | 0
8 | C[C@@H]1CN(Cc2ccc(F)cc2)[C@@H](C)CN1C(=O)c1cc2c(C(=O)C(=O)N(C)C)cn(C)c2cc1Cl [Talmapimod] | 0 | 0 | 0 | 0 | 0 | 0 | 0 | 0
9 | CC1(C)CCC(c2ccc(Cl)cc2)=C(CN2CCN(c3ccc(C(=O)NS(=O)(=O)c4ccc(N[C@H](CCN5CCOCC5)CSc5ccccc5)c(S(=O)(=O)C(F)(F)F)c4)cc3)CC2)C1 [Navitoclax] | 12 | 0 | 0 | 0 | 0 | 4 | 0 | 0
10 | CNC(=O)c1ccccc1Nc1cc(Nc2ccc(N3CCOCC3)cc2OC)ncc1C(F)(F)F [VS-4718] | 12.5 | 3 | 7.8 | 4.5 | 7.2 | 9.2 | 6.3 | 6.7
11 | COc1cc2c(cc1OCCCN1CCCC1)N=C(N)C21CCC1 [A-366] | 0.4 | 3.8 | 2.3 | 0.6 | 0.5 | 0 | 0 | 2.7
12 | Cn1cc(-c2cnn3c(N)c(Br)c([C@@H]4CCCNC4)nc23)cn1 [MK-8776] | 1.7 | 0.9 | 0 | 0 | 0 | 0 | 2 | 1.9
13 | COc1cc(N2CCC(N3CCN(C)CC3)CC2)ccc1Nc1ncnc(Nc2ccccc2S(=O)(=O)C(C)C)n1 [ASP3026] | 2.6 | 4.8 | 5.5 | 2 | 4.4 | 2.4 | 2.7 | 5.2
14 | Cc1cc(Nc2cc(CN3CCOCC3)c3nc(C)c(Cc4ccc(Cl)cc4F)n3n2)n[nH]1 [Gandotinib] | 6.9 | 4.8 | 5.9 | 3.6 | 2.2 | 3 | 0 | 4
15 | C1=N/C2=N/c3ccc(OCCN4CCCC4)c(c3)COC/C=C/COCc3cccc(c3)C(=C1)N2 [Pacritinib] | 9.5 | 16.8 | 9.8 | 9.8 | 7.7 | 9.8 | 5.4 | 9.1
16 | Nc1nc2[nH]cc(CCc3ccc(C(=O)N[C@@H](CCC(=O)O)C(=O)O)cc3)c2c(=O)[nH]1 [Pemetrexed] | 0 | 24.5 | 7.4 | 6.6 | 0.1 | 0.6 | 0 | 0
17 | CN1CCN(C2CCC(n3cc(-c4ccc(Oc5ccccc5)cc4)c4c(N)ncnc43)CC2)CC1 (stereo unspecified) | 7.7 | 10.1 | 9.4 | 8 | 7.2 | 6.6 | 5 | 9.2
18 | CC(=O)OC[C@H]1O[C@@H]([S-])[C@H](OC(C)=O)[C@@H](OC(C)=O)[C@@H]1OC(C)=O.CCP(CC)CC.[Au+] [Auranofin] | 9 | 12.4 | 9.5 | 3.2 | 2.6 | 0.5 | 3.7 | 5.6
19 | COc1ccc(COc2cc3oc(=O)c4cc(C(C)O)ccc4c3cc2OC)cc1 (stereo unspecified) [Palomid-529] | 0.7 | 0 | 0 | 0 | 0.1 | 0.1 | 0 | 0
20 | Nc1nc(OCc2cc(Br)cs2)c2[nH]cnc2n1 [Lomeguatrib] | 0 | 0 | 0 | 0 | 0 | 0 | 0 | 0
21 | C[C@@H](Oc1cc(-n2cnc3ccc(CN4CCN(C)CC4)cc32)sc1C(N)=O)c1ccccc1C(F)(F)F | 1.7 | 27.9 | 25.6 | 8.1 | 10 | 5 | 10.1 | 22.8

Row | Compound | drug sensitivity score (FM-MEL-3) | drug sensitivity score (Bowes) | drug sensitivity score (WM165) | drug sensitivity score (SK-MEL-28) | drug sensitivity score (FM-MEL-6) | drug sensitivity score (FM-MEL-2) | drug sensitivity score (SK-MEL-2) | drug sensitivity score (WM852)
22 | Cc1ncc(Cl)cc1NCc1ccc(C(=O)N[C@@H](CC2CCCC2)C(=O)NC2CC2)s1 | 4.6 | 0 | 0 | 0 | 0 | 0 | 0 | 0
23 | Cc1c(F)cc(C(=O)NC2CC2)cc1-c1ccc(C(=O)NCC(C)(C)C)cn1 [Losmapimod] | 0.7 | 2.8 | 0 | 0 | 0 | 1.6 | 0 | 0
24 | CCN1C(=O)CNc2ncc(-c3ccc(-c4nc[nH]n4)nc3C)nc21 [CC-115] | 8.5 | 8.2 | 10.4 | 6.5 | 9.5 | 10.7 | 9.8 | 5
25 | Cc1c(Cn2c(C)nc3c(C(=O)O)cc(N4CCOCC4)cc32)cccc1C(F)(F)F | 0 | 0 | 0 | 0.3 | 0 | 0 | 0 | 0
26 | Cc1ccc(NC(=O)c2ccc(CN3CC[C@H](N(C)C)C3)c(C(F)(F)F)c2)cc1Nc1nccc(-c2cncnc2)n1 [Bafetinib] | 1.7 | 0 | 2.9 | 1.3 | 0 | 2.3 | 0 | 0
27 | O=C(Nc1cc(Cl)cc2c1[nH]c1cnccc12)c1cccnc1 [PS-1145] | 0.7 | 0 | 0 | 0 | 0 | 0 | 0 | 1.3
28 | Cc1cnc(NC(=O)Nc2cc(Br)c(C)cc2OC[C@@H]2CNCCO2)cn1 [Rabusertib] | 1.5 | 0.9 | 0 | 0 | 0 | 0 | 0 | 2.4
29 | CCCCC(=O)OCC(=O)[C@]1(O)Cc2c(O)c3c(c(O)c2[C@@H](O[C@H]2C[C@H](NC(=O)C(F)(F)F)[C@H](O)[C@H](C)O2)C1)C(=O)c1c(OC)cccc1C3=O [Valrubicin] | 7.2 | 6.4 | 21.5 | 8.3 | 9.2 | 6.8 | 8.5 | 5.1
30 | C[C@@H]1CN(CC(=O)Nc2ccc3c(c2)Cc2cccc(-c4cc(=O)cc(N5CCOCC5)o4)c2S3)C[C@H](C)O1 | 1.2 | 2.5 | 1.1 | 3.4 | 1 | 1.5 | 0 | 2.6
31 | NC(=O)/C(=C/n1cnc(-c2cc(C(F)(F)F)cc(C(F)(F)F)c2)n1)c1cncnc1 [Eltanexor] | 18.4 | 14.8 | 19.3 | 14 | 11.8 | 9.5 | 15.2 | 11.2
32 | CC(C)(C)C[C@@H]1N[C@@H](C(=O)N[C@H]2CC[C@H](O)CC2)[C@H](c2cccc(Cl)c2F)[C@]12C(=O)Nc1cc(Cl)ccc12 | 16.6 | 2.2 | 15.9 | 0 | 0 | 3.1 | 0 | 0
33 | C=CCc1cccc(/C=N/NC(=O)CN2CCN(Cc3ccccc3)CC2)c1O [PAC-1] | 0 | 1.6 | 3.4 | 1.5 | 0 | 0 | 0 | 2.8
34 | COc1cc(N2CCC(N3CCN(C)CC3)CC2)ccc1Nc1ncc(Cl)c(Nc2ccccc2P(C)(C)=O)n1 [Brigatinib] | 3.3 | 1.1 | 1.5 | 0.5 | 1.6 | 0.9 | 0.2 | 3.1
35 | CNc1nc(Nc2cn(C(C)(C)C#N)nc2C)ncc1C(F)(F)F [GNE-0877] | 0 | 0 | 0 | 0 | 0 | 0 | 0 | 0
36 | CNC(=O)c1ccc(N2C(=S)N(c3ccc(C#N)c(C(F)(F)F)c3)C(=O)C2(C)C)cc1F [Enzalutamide] | 0.3 | 0.1 | 0 | 0 | 0 | 0.2 | 0 | 0.9
37 | COc1ccc2[nH]cc(/C=C3\C(=O)Nc4ccc(NC(=O)CCN5CCCCC5)cc43)c2c1 | 5.6 | 5.9 | 8.8 | 8.6 | 5 | 12.6 | 4.6 | 11.1
38 | CCCCCOC(=O)Nc1nc(=O)n([C@@H]2O[C@H](C)[C@@H](O)[C@H]2O)cc1F [Capecitabine] | 0 | 0 | 0 | 0 | 0 | 0 | 0 | 0
39 | CCc1nc(C(N)=O)c(Nc2ccc(N3CCC(N4CCN(C)CC4)CC3)c(OC)c2)nc1NC1CCOCC1 [Gilteritinib] | 5 | 0 | 2.8 | 2.7 | 1.9 | 3.7 | 1.7 | 1.8
40 | CN1CCN(C2CCN(C(=O)Nc3cc(Oc4ccc(NC(=O)C5(C(=O)Nc6ccc(F)cc6)CC5)c(F)c4)ccn3)CC2)CC1 [Golvatinib] | 0 | 2.3 | 0 | 0 | 0 | 1.5 | 0 | 0.5
41 | CCn1cc(-c2ccnc3[nH]c(-c4cccc(CN(C)C)c4)cc23)c(-c2ccc(NC(=O)N(C)C)cc2)n1 | 0 | 2.7 | 6 | 0.1 | 0 | 0 | 0 | 0
42 | NC(=O)c1cccc(-c2cccc(OC(=O)NC3CCCCC3)c2)c1 [URB597] | 0 | 0 | 0 | 0 | 0 | 0 | 0 | 0
